Experimental data published in PMC3961306, “Comparison of the Cancer Gene Targeting and Biochemical Selectivities of All Targeted Kinase Inhibitors Approved for Clinical Use” (PLoS ONE, 2014).
Read-outs that look alike come from different tables or passages of the source.

Columns and labels:
Test in all cases: Kinase profiling in a biochemical assay panel (mobility shift assays and ELISA), %-inhibition at 1 μM; selectivity entropy
[1] = molecular target: panel of more than 300 wild-type and mutant kinases (313 kinase panel) (Homo sapiens, UniProt O75676); settings: kinase MSK2; 1 μM
[2] = molecular target: panel of more than 300 wild-type and mutant kinases (313 kinase panel) (Homo sapiens, UniProt P23443); settings: kinase p70S6K; 1 μM
[3] = molecular target: panel of more than 300 wild-type and mutant kinases (313 kinase panel) (Homo sapiens, UniProt P28482); settings: kinase Erk2; compound at 1 μM
[4] = molecular target: T1, panel of more than 300 wild-type and mutant kinases (313 kinase panel) (Homo sapiens, UniProt P42680); settings: kinase TEC; 1 μM
T1 sequence (P42680 1-631): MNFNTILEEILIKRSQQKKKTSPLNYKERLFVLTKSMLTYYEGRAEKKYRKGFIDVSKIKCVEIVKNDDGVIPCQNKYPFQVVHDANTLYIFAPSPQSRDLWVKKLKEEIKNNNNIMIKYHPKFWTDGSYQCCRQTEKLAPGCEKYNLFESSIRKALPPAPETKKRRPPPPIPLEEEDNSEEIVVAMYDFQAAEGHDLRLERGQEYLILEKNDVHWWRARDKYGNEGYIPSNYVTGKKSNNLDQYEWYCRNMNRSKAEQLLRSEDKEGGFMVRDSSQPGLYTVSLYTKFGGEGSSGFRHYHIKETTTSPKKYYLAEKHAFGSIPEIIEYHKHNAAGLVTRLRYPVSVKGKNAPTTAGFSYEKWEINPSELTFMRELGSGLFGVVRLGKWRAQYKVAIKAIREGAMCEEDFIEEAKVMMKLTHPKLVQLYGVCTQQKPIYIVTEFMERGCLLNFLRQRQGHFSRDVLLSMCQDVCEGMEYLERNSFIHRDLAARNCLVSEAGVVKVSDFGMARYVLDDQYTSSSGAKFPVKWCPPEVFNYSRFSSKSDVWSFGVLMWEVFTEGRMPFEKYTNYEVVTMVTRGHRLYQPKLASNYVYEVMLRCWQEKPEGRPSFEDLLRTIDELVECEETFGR

[5] = molecular target: panel of more than 300 wild-type and mutant kinases (313 kinase panel) (Homo sapiens, UniProt P53355); settings: kinase DAPK1; compound at 1 μM
[6] = molecular target: panel of more than 300 wild-type and mutant kinases (313 kinase panel) (Homo sapiens, UniProt P57059); settings: kinase SIK; 1 μM
[7] = molecular target: panel of more than 300 wild-type and mutant kinases (313 kinase panel) (Homo sapiens, UniProt Q16512); settings: kinase PKN1; 1 μM
[8] = molecular target: panel of more than 300 wild-type and mutant kinases (313 kinase panel) (Homo sapiens, UniProt Q86Z02); settings: kinase HIPK1; compound at 1 μM
[9] = molecular target: T2, panel of more than 300 wild-type and mutant kinases (313 kinase panel) (Homo sapiens, UniProt Q9Y2U5); settings: kinase MAP3K2; compound at 1 μM
T2 sequence (Q9Y2U5 1-619): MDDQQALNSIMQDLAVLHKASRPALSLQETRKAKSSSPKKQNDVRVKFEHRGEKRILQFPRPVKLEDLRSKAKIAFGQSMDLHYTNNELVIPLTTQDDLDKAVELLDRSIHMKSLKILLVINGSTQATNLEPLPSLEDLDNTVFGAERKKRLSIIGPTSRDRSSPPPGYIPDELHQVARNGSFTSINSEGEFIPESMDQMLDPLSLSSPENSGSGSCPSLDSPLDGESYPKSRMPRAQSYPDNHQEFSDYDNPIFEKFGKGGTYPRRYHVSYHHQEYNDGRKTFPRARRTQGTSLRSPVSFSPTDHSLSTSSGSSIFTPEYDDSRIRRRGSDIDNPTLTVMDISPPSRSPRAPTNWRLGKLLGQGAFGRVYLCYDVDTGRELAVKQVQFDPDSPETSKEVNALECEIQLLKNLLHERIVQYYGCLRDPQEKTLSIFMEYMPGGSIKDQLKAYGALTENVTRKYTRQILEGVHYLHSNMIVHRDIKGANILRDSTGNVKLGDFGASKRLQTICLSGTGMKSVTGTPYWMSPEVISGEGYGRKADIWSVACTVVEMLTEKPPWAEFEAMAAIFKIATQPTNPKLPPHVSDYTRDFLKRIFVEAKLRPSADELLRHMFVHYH

[10] = test system: panel of more than 300 wild-type and mutant kinases (313 kinase panel); settings: for %-inhibition of EGFR(d746-750): kinase EGFR(d746-750); for %-inhibition of EGFR(d746-750/T790M): kinase EGFR(d746-750/T790M)
[11] = kinase EML4-ALK, compound at 1 μM

Row | Compound | %-inhibition of MSK2 [1] [%] | %-inhibition of p70S6K [2] [%] | %-inhibition of Erk2 [3] [%] | %-inhibition of TEC [4] [%] | %-inhibition of DAPK1 [5] [%] | %-inhibition of SIK [6] [%] | %-inhibition of PKN1 [7] [%] | %-inhibition of HIPK1 [8] [%] | %-inhibition of MAP3K2 [9] [%] | %-inhibition of EGFR(d746-750) ([10]; compound at 1 μM) [%] | %-inhibition of EGFR(d746-750/T790M) ([10]; compound at 1 μM) [%] | %-inhibition of EML4-ALK [10, 11] [%] | %-inhibition of LYNb ([10]; kinase LYNb, compound at 1 μM) [%] | %-inhibition of NPM1-ALK ([10]; kinase NPM1-ALK, 1 μM) [%] | %-inhibition of PKCβ2 ([10]; kinase PKCβ2, 1 μM) [%] | %-inhibition of SRM ([10]; kinase SRM, 1 μM) [%] | %-inhibition of TAK1-TAB1 ([10]; kinase TAK1-TAB1, 1 μM) [%] | %-inhibition of NPM1-ALK [10] [%] | %-inhibition of TAK1-TAB1 [10] [%] | %-inhibition of EML4-ALK ([10]; 1 µM) [%] | also measured
1 | CNC(=O)c1cc(Oc2ccc(NC(=O)Nc3ccc(Cl)c(C(F)(F)F)c3)c(F)c2)ccn1 [regorafenib] | 2.43 | 92 | -5 | -8 | -11 | 0.674 | 0.804 | 47 | 19 | 12 | 3.63 | -7 | 85 | -7 | -9 | 66 | 60 | – | – | – | –
2 | Cc1cn(-c2cc(NC(=O)c3ccc(C)c(Nc4nccc(-c5cccnc5)n4)c3)cc(C(F)(F)F)c2)cn1 [nilotinib] | 2.55 | 2 | 1.49 | -0.144 | -11 | -25 | 13 | 14 | -26 | – | – | – | – | – | – | – | – | -64 | 5 | -12 | %-inhibition of LYNb ([10]; 1 µM): 85%; %-inhibition of PKCβ2 ([10]; 1 µM): 1.66%; %-inhibition of SRM ([10]; 1 µM): 27%
3 | Cc1ccc(Nc2nccc(N(C)c3ccc4c(C)n(C)nc4c3)n2)cc1S(N)(=O)=O [pazopanib] | 1.45 | 17 | -0.636 | 48 | 0.316 | 19 | 17 | 10 | 46 | – | – | – | – | – | – | – | – | 21 | -4.34 | 27 | %-inhibition of LYNb ([10]; 1 µM): 85%; %-inhibition of PKCβ2 ([10]; 1 µM): 4.55%; %-inhibition of SRM ([10]; 1 µM): 63%
4 | COc1cc2nccc(Oc3ccc(NC(=O)C4(C(=O)Nc5ccc(F)cc5)CC4)cc3)c2cc1OC [cabozantinib] | -3.52 | 8 | -8 | 43 | -10 | 6 | 2.13 | 31 | 9 | 51 | 43 | 17 | 97 | 10 | -0.178 | 99 | 4.37 | – | – | – | –
